Eight molecules from BindingDB's records for doi:10.1016/j.bmcl.2007.04.051 (Eli Lilly, 2007) can be followed below.

One experiment deals with T1, Estrogen receptor (Homo sapiens, UniProt P03372).
T1 sequence (P03372 whole entry): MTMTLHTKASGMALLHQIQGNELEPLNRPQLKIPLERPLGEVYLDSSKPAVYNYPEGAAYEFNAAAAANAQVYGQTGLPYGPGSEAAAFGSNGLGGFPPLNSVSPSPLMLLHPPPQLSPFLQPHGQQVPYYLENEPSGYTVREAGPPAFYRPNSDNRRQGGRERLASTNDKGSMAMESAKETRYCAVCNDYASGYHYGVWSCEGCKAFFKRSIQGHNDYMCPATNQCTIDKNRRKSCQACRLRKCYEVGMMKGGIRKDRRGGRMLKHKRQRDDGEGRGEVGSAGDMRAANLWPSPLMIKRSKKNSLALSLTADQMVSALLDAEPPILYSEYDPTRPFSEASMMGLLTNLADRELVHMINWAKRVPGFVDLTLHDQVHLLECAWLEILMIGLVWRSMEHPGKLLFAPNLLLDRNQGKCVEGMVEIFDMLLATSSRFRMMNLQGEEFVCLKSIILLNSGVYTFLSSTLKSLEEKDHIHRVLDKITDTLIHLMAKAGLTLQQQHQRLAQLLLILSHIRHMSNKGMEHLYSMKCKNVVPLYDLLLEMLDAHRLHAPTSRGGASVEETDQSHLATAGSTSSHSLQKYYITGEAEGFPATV
The experiment can be described thus: Estrogen Receptor Binding Assay. To be noted: pH 7.5; 22 °C. Here is the method: (§1) The binding affinities were determined by a competitive radiometric binding assay using [3H]estradiol as tracer. The Kd for 3H-estradiol was determined by saturation binding to ER receptors. The IC50 values for compounds were converted to Ki using Cheng-Prusoff equation.

For a further experiment, the target named is Estrogen receptor beta (Homo sapiens, UniProt Q92731). Put plainly: Estrogen Receptor Binding Assay. To be noted: pH 7.5; 22 °C. Here is the method:
as §1

Molecules are shown by their SMILES.

Sequence of Estrogen receptor beta (Q92731 whole entry): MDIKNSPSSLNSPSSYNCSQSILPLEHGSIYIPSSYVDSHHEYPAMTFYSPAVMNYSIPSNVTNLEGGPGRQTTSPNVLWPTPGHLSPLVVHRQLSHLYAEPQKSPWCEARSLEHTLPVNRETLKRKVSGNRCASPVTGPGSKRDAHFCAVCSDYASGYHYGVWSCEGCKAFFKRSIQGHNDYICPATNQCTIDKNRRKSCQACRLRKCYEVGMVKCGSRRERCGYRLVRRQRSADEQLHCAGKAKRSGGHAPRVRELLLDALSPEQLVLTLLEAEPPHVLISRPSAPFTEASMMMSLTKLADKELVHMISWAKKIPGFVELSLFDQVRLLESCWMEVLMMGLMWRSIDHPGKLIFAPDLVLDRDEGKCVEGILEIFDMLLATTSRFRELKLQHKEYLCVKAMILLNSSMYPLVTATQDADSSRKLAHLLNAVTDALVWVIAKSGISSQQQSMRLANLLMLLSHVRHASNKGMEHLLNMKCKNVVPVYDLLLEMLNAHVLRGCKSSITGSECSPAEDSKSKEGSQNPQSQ

Usually Ki stands for the equilibrium dissociation constant of an inhibitor or competing ligand from its target. The low end stands for a stronger hold on the target, the high end for a looser hold on the target. `Oc1ccc2c(c1)[C@@H]1CCC[C@@H]1[C@H](c1ccccc1)O2` [racemic mixture] yielded a Ki on Estrogen receptor of 267 nM. For the molecule `Oc1ccc([C@@H]2Oc3ccc(O)cc3[C@@H]3CCCCC[C@@H]32)cc1` [racemic mixture], the results for the Ki on Estrogen receptor and on Estrogen receptor beta were 6.11 nM and 0.88 nM, respectively. For `Oc1ccc([C@@H]2Oc3ccc(O)cc3[C@@H]3CCCC[C@@H]32)cc1` [racemic mixture] the same measures were 2.88 nM and 0.63 nM. On the same counts, the results for `Oc1ccc([C@@H]2Oc3cccc(O)c3[C@@H]3CCC[C@@H]32)cc1` [racemic mixture] are 0.35 nM and 0.66 nM. Molecule `Oc1ccc([C@@H]2CCc3cc(O)ccc3O2)cc1` [racemic mixture] returned a Ki at Estrogen receptor of 126 nM.

For the molecule `Oc1ccc([C@@H]2Oc3ccccc3[C@@H]3CCC[C@@H]32)cc1` (racemic) [4-[(2R,6S,7R)-8-oxatricyclo[7.4.0.0^{2,6}]trideca-1(9),10,12-trien-7-yl]phenol], the Ki stood at 40 nM on Estrogen receptor and 22.1 nM at Estrogen receptor beta. `Oc1cccc([C@@H]2Oc3ccc(O)cc3[C@@H]3CCC[C@@H]32)c1` (racemic) [(2R,6S,7R)-7-(3-hydroxyphenyl)-8-oxatricyclo[7.4.0.0^{2,6}]trideca-1(9),10,12-trien-12-ol] showed a Ki at Estrogen receptor of 65 nM. For the molecule `Oc1ccc([C@@H]2Oc3cc(O)ccc3[C@@H]3CCC[C@@H]32)cc1` [racemic mixture], the Ki on Estrogen receptor came to 41 nM; on Estrogen receptor beta, 18.9 nM.
